{"source": "patent US20240059738A1", "about": "“SWITCHING PEPTIDE AND MULTIPLEX IMMUNOASSAY METHOD USING SAME” (OPTOLANE TECHNOLOGIES INC., priority 2021, published 2024)", "key": {"L2 peptide": {"test_system": "L2 peptide", "experiment": "FRET interaction between H1 and L2 peptides on microplate", "assay_type": "binding", "conditions": "with increasing concentration of H1 peptide; FAM/TAMRA labels", "source_text": "(§1) FIG. 4A is diagrams illustrating a method for confirming a specific interaction between L1 and H2 peptides and a specific interaction between L2 and H1 peptides and the measurement results thereof, and FIG. 4B is diagrams for explaining a specific interaction between L1 and H2 peptides and a specific interaction between L2 and H1 peptides analyzed using PyMOL software. Here, at the ends of the L1 and L2 peptides, a first fluorescent label, FAM (λex=488 nm, λem=532 nm) was modified, and at the ends of the H1 and H2 peptides, a second fluorescent label, TAMRA λex=532 nm, λem=570 nm) was modified. Meanwhile, the first peptide (L1 or L2) was immobilized on a parylene-H-coated microplate through a covalent bond between a formyl group of parylene-H and a primary amine group of a lysine residue in the peptide, and the second peptide (H2 or H1) was incubated with the immobilized first peptide (L1 or L2) to allow specific interactions between them."}, "[1]": {"test_system": "rabbit anti-HRP antibodies (Fab region)", "experiment": "Papain treatment of immobilized antibody with bound fluorescently labeled switching peptide (FIG. 6B)", "assay_type": "binding", "conditions": "after papain treatment compared to before", "source_text": "FIG. 6A is a schematic diagram illustrating states before and after treatment of the antibody to which the four types of peptides of Example 1 were bound, respectively, with papain, which is a protease, and FIG. 6B is graphs illustrating a fluorescence intensity measured at a bottom (B) of the microplate and in a solution (S) after the papain treatment. In the case of this experiment, after immobilization of the antibodies (rabbit anti-HRP antibodies) on the microplate, binding between the antibody and the switching peptide was induced by treatment with a fluorescently labeled switching peptide, the unbound switching peptide was removed, and then the Fab region was hydrolyzed from the immobilized antibodies by adding papain, which is a protease.\nReferring to FIG. 6A, the fluorescence at the bottom (B) of the microplate is expected to decrease after the papain reaction because the fluorescently labeled switching peptides are bound to the Fab region of antibodies, and the fluorescence in the solution is expected to increase because the Fab region to which the switching peptide is bound is hydrolyzed and dissolved into the solution. This prediction is proven to be true from the graphs of FIG. 6B."}, "Anti-HRP antibody(r)": {"test_system": "Anti-HRP antibody(r)", "experiment": "Antigen-induced release of fluorescently labeled peptide from immobilized antibody (Table 2), HRP antigen", "assay_type": "binding, rabbit", "conditions": "for remaining fluorescence intensity at plate bottom after antigen binding (% of before): anti-HRP antibodies from rabbits; for Bottom (B) of microplate Change (%) / fluorescence intensity Bottom (B) of microplate After antigen binding / fluorescence intensity Bottom (B) of microplate Before antigen binding / fluorescence intensity In solution (S) After antigen binding / fluorescence intensity In solution (S) Before antigen binding: anti-HRP antibody (rabbit), HRP"}, "Anti-HBsAg antibody(g)": {"test_system": "Anti-HBsAg antibody(g)", "experiment": "Antigen-induced release of fluorescently labeled peptide from immobilized antibody (Table 2), HBsAg antigen", "assay_type": "binding, goat", "conditions": "for fluorescence intensity remaining at bottom of plate after antigen (% of before): anti-HBsAg antibodies from goats"}, "Anti-hCG antibody(m)": {"test_system": "Anti-hCG antibody(m)", "experiment": "Antigen-induced release of fluorescently labeled peptide from immobilized antibody (Table 2), hCG antigen", "assay_type": "binding", "conditions": "anti-hCG antibody (mouse)"}, "Anti-CRP antibody(r)": {"test_system": "Anti-CRP antibody(r)", "experiment": "Antigen-induced release of fluorescently labeled peptide from immobilized antibody (Table 2), CRP antigen", "assay_type": "binding", "conditions": "anti-CRP antibody (rabbit)"}, "[2]": {"test_system": "anti-HRP antibody from a rabbit", "experiment": "One-step immunoassay with varying HRP concentration (FIGS. 7A-7C)", "assay_type": "binding", "conditions": "HRP 0.3 to 100 μM; for Kd: estimated, read-out: Equilibrium dissociation constants", "source_text": "FIG. 7A is a schematic diagram for explaining an immunoassay method using fluorescently labeled peptide compounds of Example 1, and FIGS. 7B and 7C are graphs illustrating the fluorescence intensities in a solution and at a bottom of the microplate depending on a concentration of the antigen measured by the immunoassay method illustrated in FIG. 7A. In this experiment, an anti-HRP antibody from a rabbit immobilized on a microplate was used as the binding antibody and HRP was used as the antigen."}, "[3]": {"experiment": "Net charge of switching peptides at pH 6.0 to 8.0", "assay_type": "physicochemical", "conditions": "pH 6.0 to 7.0; histidine residue pKa 6.02", "description": "(§2) Regarding the antibody binding properties of the switching peptides at pH 6.0 to 8.0, a net charge of H1 and L2 peptides decreased to 0.5 at pH 6.0 to 7.0 due to a histidine residue with a pKa value of 6.02. In addition, the net charge of the H2 and L2 peptides decreased to 0.5 at pH 7.0 to 8.0 due to a cysteine residue with a pKa value of 8.18. […] Therefore, the immunoassay was performed by selecting an L1 peptide having specific dissociation from hepatitis B surface antigen-antibody binding and stability within a pH range of human serum immunoassay."}, "H2 peptide": {"test_system": "H2 peptide", "sequence (as listed by the source)": "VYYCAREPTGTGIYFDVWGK", "experiment": "FRET interaction between L1 and H2 peptides on microplate", "assay_type": "binding", "conditions": "with increasing concentration of L1 peptide; FAM/TAMRA labels", "source_text": "as §1\nReferring to FIG. 4A, the interaction between the L1 and H2 peptides was observed by changing the concentration of the L1 peptide, and the FRET intensity increased with increasing the concentration of the L1 peptide."}, "[4]": {"test_system": "hepatitis B surface antigen-antibody", "experiment": "Antibody binding properties (fluorescence signal) of switching peptides at pH 6.0 to 8.0", "description": "as §2"}, "HRP, CRP, HBsAg, and hCG": {"test_system": "HRP, CRP, HBsAg, and hCG", "description": "After immobilizing the hepatitis B surface antigen (HBsAg)-antibody detected using the immunoassay of the peptide compounds of Example 1 on a microplate, L1 peptide was added, and 0.04 to 30 μg/ml of the hepatitis B surface antigen was treated."}, "[5]": {"conditions": "anti-HBsAg antibody (goat), HBsAg"}}, "data": [{"sequence": "SYWIHWVKQRPGQGLEWIGE [H1, SYWIH WVKQR PGQGL EWIGE]", "values": [{"measurement": "FRET intensity", "setting": "L2 peptide", "result": "increase"}, {"measurement": "decrease of fluorescence intensity at the bottom of the microplate", "setting": "[1]", "result": 84.3, "unit": "%"}, {"measurement": "increase of fluorescence intensity in the solution", "setting": "[1]", "result": "2,184%"}, {"measurement": "remaining fluorescence intensity at plate bottom after antigen binding (% of before)", "setting": "Anti-HRP antibody(r)", "result": 12.3, "unit": "%"}, {"measurement": "Bottom (B) of microplate Change (%)", "setting": "Anti-HRP antibody(r)", "result": "−87.7", "unit": "%"}, {"measurement": "fluorescence intensity Bottom (B) of microplate After antigen binding", "setting": "Anti-HRP antibody(r)", "result": 1451}, {"measurement": "fluorescence intensity Bottom (B) of microplate Before antigen binding", "setting": "Anti-HRP antibody(r)", "result": 11840}, {"measurement": "fluorescence intensity In solution (S) After antigen binding", "setting": "Anti-HRP antibody(r)", "result": 21965}, {"measurement": "fluorescence intensity In solution (S) Before antigen binding", "setting": "Anti-HRP antibody(r)", "result": 2596}, {"measurement": "fluorescence intensity remaining at bottom of plate after antigen (% of before)", "setting": "Anti-HBsAg antibody(g)", "result": 41.1, "unit": "%"}, {"measurement": "Bottom (B) of microplate Change (%)", "setting": "Anti-HBsAg antibody(g); [5]", "result": "−58.9", "unit": "%"}, {"measurement": "fluorescence intensity Bottom (B) of microplate After antigen binding", "setting": "Anti-HBsAg antibody(g); [5]", "result": 4618}, {"measurement": "fluorescence intensity Bottom (B) of microplate Before antigen binding", "setting": "Anti-HBsAg antibody(g); [5]", "result": 11225}, {"measurement": "fluorescence intensity In solution (S) After antigen binding", "setting": "Anti-HBsAg antibody(g); [5]", "result": 11453}, {"measurement": "Bottom (B) of microplate Change (%)", "setting": "Anti-hCG antibody(m)", "result": "−65.6", "unit": "%"}, {"measurement": "In solution (S) Change (%)", "setting": "Anti-hCG antibody(m)", "result": "+206%"}, {"measurement": "fluorescence intensity Bottom (B) of microplate After antigen binding", "setting": "Anti-hCG antibody(m)", "result": 1940}, {"measurement": "fluorescence intensity Bottom (B) of microplate Before antigen binding", "setting": "Anti-hCG antibody(m)", "result": 5646}, {"measurement": "fluorescence intensity In solution (S) After antigen binding", "setting": "Anti-hCG antibody(m)", "result": 3921}, {"measurement": "fluorescence intensity In solution (S) Before antigen binding", "setting": "Anti-hCG antibody(m)", "result": 1281}, {"measurement": "Bottom (B) of microplate Change (%)", "setting": "Anti-CRP antibody(r)", "result": "−26.8", "unit": "%"}, {"measurement": "In solution (S) Change (%)", "setting": "Anti-CRP antibody(r)", "result": "+152%"}, {"measurement": "fluorescence intensity Bottom (B) of microplate After antigen binding", "setting": "Anti-CRP antibody(r)", "result": 3595}, {"measurement": "fluorescence intensity Bottom (B) of microplate Before antigen binding", "setting": "Anti-CRP antibody(r)", "result": 4912}, {"measurement": "fluorescence intensity In solution (S) After antigen binding", "setting": "Anti-CRP antibody(r)", "result": 5659}, {"measurement": "fluorescence intensity In solution (S) Before antigen binding", "setting": "Anti-CRP antibody(r)", "result": 2242}, {"measurement": "fluorescence intensity in the solution depending on the concentration of the antigen (HRP)", "setting": "[2]", "result": "increase"}, {"measurement": "Kd", "setting": "[2]", "result": 1650, "unit": "nM"}, {"measurement": "net charge", "setting": "[3]", "result": 0.5}]}, {"sequence": "TYLEWYPQKPGQSPKLLIYK [L1, TYLEW YPQKP GQSPK LLIYK]", "values": [{"measurement": "FRET intensity", "setting": "H2 peptide", "result": "increased"}, {"measurement": "decrease of fluorescence intensity at the bottom of the microplate", "setting": "[1]", "result": 84.8, "unit": "%"}, {"measurement": "increase of fluorescence intensity in the solution", "setting": "[1]", "result": "1,032%"}, {"measurement": "remaining fluorescence intensity at plate bottom after antigen binding (% of before)", "setting": "Anti-HRP antibody(r)", "result": 12.7, "unit": "%"}, {"measurement": "Bottom (B) of microplate Change (%)", "setting": "Anti-HRP antibody(r)", "result": "−87.3", "unit": "%"}, {"measurement": "fluorescence intensity Bottom (B) of microplate After antigen binding", "setting": "Anti-HRP antibody(r)", "result": 1990}, {"measurement": "fluorescence intensity Bottom (B) of microplate Before antigen binding", "setting": "Anti-HRP antibody(r)", "result": 15608}, {"measurement": "fluorescence intensity In solution (S) After antigen binding", "setting": "Anti-HRP antibody(r)", "result": 12280}, {"measurement": "fluorescence intensity In solution (S) Before antigen binding", "setting": "Anti-HRP antibody(r)", "result": 2687}, {"measurement": "fluorescence intensity remaining at bottom of plate after antigen (% of before)", "setting": "Anti-HBsAg antibody(g)", "result": 48.7, "unit": "%"}, {"measurement": "Bottom (B) of microplate Change (%)", "setting": "Anti-HBsAg antibody(g); [5]", "result": "−51.3", "unit": "%"}, {"measurement": "fluorescence intensity Bottom (B) of microplate After antigen binding", "setting": "Anti-HBsAg antibody(g); [5]", "result": 5388}, {"measurement": "fluorescence intensity Bottom (B) of microplate Before antigen binding", "setting": "Anti-HBsAg antibody(g); [5]", "result": 11062}, {"measurement": "fluorescence intensity In solution (S) After antigen binding", "setting": "Anti-HBsAg antibody(g); [5]", "result": 20501}, {"measurement": "fluorescence intensity In solution (S) Before antigen binding", "setting": "Anti-HBsAg antibody(g); [5]", "result": 2779}, {"measurement": "Bottom (B) of microplate Change (%)", "setting": "Anti-hCG antibody(m)", "result": "−61.6", "unit": "%"}, {"measurement": "In solution (S) Change (%)", "setting": "Anti-hCG antibody(m)", "result": "+187%"}, {"measurement": "fluorescence intensity Bottom (B) of microplate After antigen binding", "setting": "Anti-hCG antibody(m)", "result": 1777}, {"measurement": "fluorescence intensity Bottom (B) of microplate Before antigen binding", "setting": "Anti-hCG antibody(m)", "result": 4630}, {"measurement": "fluorescence intensity In solution (S) After antigen binding", "setting": "Anti-hCG antibody(m)", "result": 3580}, {"measurement": "fluorescence intensity In solution (S) Before antigen binding", "setting": "Anti-hCG antibody(m)", "result": 1248}, {"measurement": "Bottom (B) of microplate Change (%)", "setting": "Anti-CRP antibody(r)", "result": "−48.6", "unit": "%"}, {"measurement": "In solution (S) Change (%)", "setting": "Anti-CRP antibody(r)", "result": "+778%"}, {"measurement": "fluorescence intensity Bottom (B) of microplate After antigen binding", "setting": "Anti-CRP antibody(r)", "result": 3456}, {"measurement": "fluorescence intensity Bottom (B) of microplate Before antigen binding", "setting": "Anti-CRP antibody(r)", "result": 6719}, {"measurement": "fluorescence intensity In solution (S) After antigen binding", "setting": "Anti-CRP antibody(r)", "result": 6505}, {"measurement": "fluorescence intensity In solution (S) Before antigen binding", "setting": "Anti-CRP antibody(r)", "result": 741}, {"measurement": "fluorescence intensity in the solution depending on the concentration of the antigen (HRP)", "setting": "[2]", "result": "increase"}, {"measurement": "Kd", "setting": "[2]", "result": 3290, "unit": "nM"}, {"measurement": "fluorescence signal in pH range required for immunoassay of HBsAg in human serum", "setting": "[4]", "result": "almost the same fluorescence signal"}, {"measurement": "selectivity among the four antigens", "setting": "HRP, CRP, HBsAg, and hCG", "result": "highest selectivity"}]}]}
